According to patent US20240131352A1, “NON-INVASIVE CANCER TREATMENT” (SCIENTIA BIOTECH S.L, priority 2021, published 2024):
Where two headings read alike, the source gives them in different places. Marks after values point to notes of the source that are not given here.

Assays:
U87MG cells = conditions: 240 min + HT 42° C. 10 min; for effect on cell viability for U87MG cells: 20 μM compound minute 210 to 240 + TTF 300 kHz, about 8 μT; for effect on viable U87MG cells of TTF+HT+PT: 20 μM pterostilbene minute 120 to 240 + TTF 300 kHz, 8 μT
Description: The hyperthermia applied was 42° C. for 10 minutes (from minute 120 to minute 130). 20 μM of pterostilbene was applied for 120 minutes (from minute 120 to minute 240). […] The magnetic field was applied using a solenoid with approximately 100 μT magnetic flux density at the central axis of the solenoid. The solenoid was placed at a distance from the cell cultures such that the average field strength on the surface of the culture flasks where the cells were attached was 8 μT.
FIGS. 15B to 15F show microscopic images of in vitro U87MG cell cultures after exposed to different external treatments.
The data are means with standard deviation for four independent experiments. Data labelled * indicates a P value (student's t test) less than 0.01 compared to the control. Data labelled + indicates a P value (student's t test) less than 0.01 compared to the TTF-only data. Data labelled # indicates a P value (student's t test) less than 0.01 compared to the TTF+HT data.

[1] = system: AsPC1 (pancreatic adenocarcinoma, ATCC) cells; conditions: for effect on viable AsPC1 cells of TTF+HT+GEM+PT: 25 μM gemcitabine + 20 μM pterostilbene minute 0 to 240 + TTF 200 kHz, 1.5 μT + HT 52° C. 20 min, all four in combination
Description: For TTF data the TT-Field applied was at 200 kHz for 240 mins (from minute 0 to minute 240) for a field intensity of 1.5 μT. For HT data the hyperthermia applied was 52° C. for 20 minutes (from minute 120 to minute 140). For PT data 20 uM of pterostilbene was applied from minute 0 to minute 240.
For TTF data, the TT-Field applied was at 200 kHz for 240 mins (from minute 0 to minute 240) for a field intensity of 1.5 μT. For HT data the hyperthermia applied was 52° C. for 20 minutes (from minute 120 to minute 140). For GEM data 25 μM of gemcitabine was applied from minute 0 to minute 240. For PT data 20 μM of pterostilbene was applied from minute 0 to minute 240.
(§2) For rows including “TTF”, a TT-Field was applied at 200 kHz for 240 mins (from minute 0 to minute 240) for a field intensity of 1.5 μT. For rows including “HT”, hyperthermia applied was at 42 ° C. for U87MG and 52° C. for AsPC1 and A2058 for 20 minutes (from minute 120 to minute 140).

[2] = system: A2058 (melanoma, ATCC) cells
Description: For TTF data, the TT-Field applied was at 200 kHz for 240 mins (from minute 0 to minute 240) for a field intensity of 1.5 μT. For HT data the hyperthermia applied was 52° C. for 20 minutes (from minute 120 to minute 140). For PT data 20 μM of pterostilbene was applied from minute 0 to minute 240.
For TTF data, the TT-Field applied was at 200 kHz for 240 mins (from minute 0 to minute 240) for a field intensity of 1.5 μT. For HT data the hyperthermia applied was 52° C. for 20 minutes (from minute 120 to minute 140). For PAC data 10 μM of paclitaxel was applied from minute 0 to minute 240.
as §2

[3] = system: MCF-7 (mammary gland carcinoma); assay: heating + tumour treating fields + PT in vitro, MCF-7; assay type: cell-based; conditions: MCF-7, in vitro
Source text: (§1) The effectiveness of therapy by heating in combination with tumour treating fields and exposure to PT is also observed in other cell lines in vitro, such as A2058 (melanoma), AsPC-1 (pancreas carcinoma), A549 (lung carcinoma), MCF-7 (mammary gland carcinoma), HT-29 (colorectal carcinoma), PC-3 (prostate carcinoma), SK-OV-3 (ovarian carcinoma and HepG2 (hepatocarcinoma).

A549 (lung carcinoma) = assay: heating + tumour treating fields + PT in vitro, A549; assay type: cell-based
Source text: as §1

GL261 = assay: TTF+HT+PT therapy on glioblastoma line GL261; assay type: cell-based; conditions: compared with U87MG
[4] = system: HT-29 (colorectal carcinoma); assay: heating + tumour treating fields + PT in vitro, HT-29; assay type: cell-based; conditions: HT-29, in vitro
Source text: as §1

[5] = system: SK-OV-3 (ovarian carcinoma); assay: heating + tumour treating fields + PT in vitro, SK-OV-3; assay type: cell-based; conditions: SK-OV-3, in vitro
Source text: as §1

HepG2 (hepatocarcinoma) = assay: heating + tumour treating fields + PT in vitro, HepG2; assay type: cell-based
Source text: as §1

[6] = system: PC-3 (prostate carcinoma); assay: heating + tumour treating fields + PT in vitro, PC-3; assay type: cell-based; conditions: PC-3, in vitro
Source text: as §1

C6 = assay: TTF+HT+PT therapy on glioblastoma line C6; assay type: cell-based; conditions: compared with U87MG
[7] = system: GSH in AsPC1 (Pancreatic adenocarcinoma) cells; assay: GSH content of AsPC1 cells in vitro (GSH depletion); assay type: cell-based
Description: (§3) For rows including “TTF”, a TT-Field was applied at 200 kHz for 240 mins (from minute 0 to minute 240) for a field intensity of 1.5 μT. For rows including “HT”, hyperthermia applied was at 42 ° C. for U87MG and 52° C. for AsPC1 and A2058 for 20 minutes (from minute 120 to minute 140). For rows including “BSO”, 1 mM of buthione sulfoximine, a specific inhibitor of GSH synthesis, was added to the cell culture medium at the time the cells of the culture were seeded. When HT and TTF were applied in combination with BSO, the HT and TTF were applied 24 hours after seeding.

GSH in U87 (GBM) cells = assay: GSH content of U87MG cells in vitro (GSH depletion); assay type: cell-based
Description: as §3

[8] = system: GSH in A2058 (melanoma) cells; assay: GSH content of A2058 cells in vitro (GSH depletion); assay type: cell-based
Description: as §3

[9] = 1 mM BSO + TTF (200 kHz, 1.5 μT, 240 min) + HT (52° C., 20 min) applied 24 hours after seeding
[10] = 1 mM BSO added at seeding, BSO alone, mean ± SD, five experiments

Molecule: OC[C@H]1O[C@@H](Oc2cc(O)cc(/C=C/c3ccc(O)cc3)c2)[C@H](O)[C@@H](O)[C@@H]1O [G-diOH-s, 3-glucoside-5,4′-dihydroxystilbene]
- effect on cell viability for U87MG cells (U87MG cells): significant reduction in cell viability

Molecule: Nc1ccn([C@@H]2O[C@H](CO)[C@@H](O)C2(F)F)c(=O)n1 [GEM, gemcitabine]
- effect on viable AsPC1 cells of TTF+HT+GEM+PT [1]: eliminated the AsPC1 cells

Molecule: CC(=O)O[C@H]1C(=O)[C@@]2(C)[C@H]([C@H](OC(=O)c3ccccc3)[C@]3(O)C[C@H](OC(=O)[C@H](O)[C@@H](NC(=O)c4ccccc4)c4ccccc4)C(C)=C1C3(C)C)[C@]1(OC(C)=O)CO[C@@H]1C[C@@H]2O [PAC, (2α,4α,5β,7β,10β,13α)-4,10-Bis(acetyloxy)-13-{[(2R,3 S)-3(benzoylamino)-2-hydroxy-3-phenylpropanoyl]oxy}-1,7-dihydroxy-9-oxo-5,20-epoxytax-11-en-2-yl benzoate]
- effect on viable A2058 cells of TTF+HT+PAC ([2]; 10 μM paclitaxel minute 0 to 240 + TTF 200 kHz, 1.5 μT + HT 52° C. 20 min): eliminated the cells

Molecule: COc1cc(/C=C/c2ccc(O)cc2)cc(OC)c1 [pterostilbene, trans-3,5-dimethoxy-4′-hydroxystilbene]
- effect on viable U87MG cells of TTF+HT+PT (U87MG cells): effectively eliminates all cells in vitro
- effect on viable U87MG cells of TTF+HT+PT (U87MG cells; listed as PT): completely eliminates all U87MG growing cells
- effectiveness of therapy by heating in combination with tumour treating fields and exposure to PT [3]: also observed
- effect on viability of A2058 cells of TTF+HT+PT ([2]; 20 μM pterostilbene minute 0 to 240 + TTF 200 kHz, 1.5 μT + HT 52° C. 20 min, compared to TTF+HT): significantly reduced the viability of the cells
- effectiveness of therapy by heating in combination with tumour treating fields and exposure to PT ([2]; A2058 (melanoma), in vitro): also observed
- effectiveness of therapy by heating in combination with tumour treating fields and exposure to PT (A549 (lung carcinoma)): also observed
- effectiveness of TTF+HT+PT therapy (GL261): same effectiveness
- effectiveness of therapy by heating in combination with tumour treating fields and exposure to PT [4]: also observed
- effectiveness of therapy by heating in combination with tumour treating fields and exposure to PT [5]: also observed
- effectiveness of therapy by heating in combination with tumour treating fields and exposure to PT (HepG2 (hepatocarcinoma)): also observed
- effect on viable AsPC1 cells of TTF+HT+GEM+PT [1]: eliminated the AsPC1 cells
- effectiveness of therapy by heating in combination with tumour treating fields and exposure to PT ([1]; AsPC-1 (pancreas carcinoma), in vitro): also observed
- effectiveness of therapy by heating in combination with tumour treating fields and exposure to PT [6]: also observed
- effectiveness of TTF+HT+PT therapy (C6): same effectiveness

Molecule: Oc1ccc(C=Cc2cc(O)cc(O)c2)cc1 [resveratrol]
- effect on cell viability for U87MG cells (U87MG cells): do not eliminate all U87MG cell growing in vitro

Molecule: Buthionine sulfoximine [BSO]
- GSH [7, 9]: 2.49 ± 0.66*^+ nmol/10^6 cells
- GSH [7, 10]: 3.14 ± 0.79 nmol/10^6 cells
- GSH (GSH in U87 (GBM) cells; 1 mM BSO + TTF (200 kHz, 1.5 μT, 240 min) + HT (42 °C, 20 min) applied 24 hours after seeding): 1.92 ± 0.59*^+ nmol/10^6 cells
- GSH (GSH in U87 (GBM) cells; [10]): 2.10 ± 0.70 nmol/10^6 cells
- GSH [8, 9]: 2.06 ± 0.51*^+ nmol/10^6 cells
- GSH [8, 10]: 2.24 ± 0.82 nmol/10^6 cells
